Laboratory results published in patent US20260174682A1, “GAMMA-AMINOBUTYRIC ACID DERIVATIVE COMPRISING POLYCYCLIC STRUCTURE, METHOD FOR PREPARING SAME, AND USE THEREOF” (ZHONGSHAN INSTITUTE FOR DRUG DISCOVERY, SIMM, CAS., priority 2022, published 2026).
Marks after values point to notes of the source that are not given here.

Tests used:
[1] = tested on: Sprague Dawley (SD) rat spared nerve injury (SNI) model; experiment: Analgesic effect in rat spared nerve injury (SNI) chronic neuropathic pain model; type: in vivo; details: SNI rats; for maximum possible effect (MPE): oral gavage 10 mg/kg (calculated by free base); for maximum possible effect (MPE) / maximum possible effect (% MPE): from AUC of mechanical pain threshold-time curve to 24 h; for area under the mechanical pain threshold-time curve compared with the vehicle control group / maximum possible effect (% MPE): oral gavage 30 mg/kg (calculated by free base)
Protocol: Establishment of the SNI model: Surgery was performed according to an aseptic operation method, and various surgical instruments, including scalpels, tweezers, suture needles/threads, surgical cotton, etc., were disinfected before the surgery. Animals were anesthetized by intraperitoneal injection of a Zoletil™ 50 solution at 50 mg/kg and then placed in lateral decubitus positions. After hair in surgical areas of lower bodies of animals was shaved, the animals were disinfected alternately with iodophor and 75% alcohol. The skin was cut at upper edges of left hind limbs, muscles were bluntly separated to expose a sciatic nerve trunk and 3 branches thereof, i.e., a tibial nerve, a common peroneal nerve and a sural nerve. The tibial nerve and the common peroneal nerve were ligated and cut, and the sural nerve was preserved and maintained intact. After the surgery, wounds were sutured layer by layer, the animals were administered with 25% ampicillin (1 mL/kg) through intraperitoneal injection to prevent infection, and routine nursing was performed. In sham group, only the sciatic nerve and the branches thereof were exposed, the nerves were not ligated and cut, and other operations were the same as those in the model group. Detection of a mechanical pain threshold: A Von-frey test fiber was used to detect the mechanical pain threshold of the sole of an operative side of each animal on day 1, day 3 and day 7 after the surgery, respectively. An “up-and-down” method was used as a method of detecting the mechanical pain threshold at the stimulation intensity of 0.4, 0.6, 1, 2, 4, 6, 8, and 15 g. During the test, the test fiber was used to vertically stimulate the site, close to an outer side, in the sole center of the left hind paw of a rat for 6-8 seconds each time at an interval of 5 seconds. A pain response was shown as an obvious paw withdrawal, paw licking, or paw lifting behavior of the animals during each test. From day 11 after the surgery, the animals were placed in an experimental environment for adaptation, wherein the adaptation was performed continuously for 15 min per day for 3 days. On day 13, a basic value of mechanical pain hypersensitivity was detected after the adaptation was completed. The mechanical pain hypersensitivity was expressed by a 50% paw-withdrawal threshold (PWT) according to a calculation formula of 50% PWT (g)=10^xf+kδ, wherein xf is a log value of a fiber test force, k is a tabular value, and δ is an average spacing of the log value of the fiber test force.
Pharmacodynamic evaluation: According to basic threshold detection results on day 13 after the surgery, the animals in the model group without the mechanical pain hypersensitivity, that is, the PWT was greater than 4 g, were excluded, and the other successfully modeled animals were used for a formal test. On day 14 after the surgery, various compound to be tested were newly formulated. Pregabalin was directly dissolved with 0.9% sodium chloride at a dose of 30 mg/kg to obtain a solution at a desired concentration. (±)—I-7, (±)—I-3 and (±)—I-4 p-toluenesulfonate were also completely dissolved with a 0.9% sodium chloride solution at a dose of 30 mg/kg (calculated by free base). The successfully modeled animals were randomly divided into 5 groups with 8 animals in each group. In addition, 7 animals were selected in the sham group. […] The mechanical pain hypersensitivity response of the left hind paw was detected at 1 h, 2 h, 4 h, 6 h, 8 h, 10 h, and 24 h after the administration. Evaluation was performed by using a blind method, and a detection method was the same as above. An area under a mechanical pain threshold-time curve (AUC) was calculated using GraphPad Prism Version 8.0.1 software.

[2] = biological target: T1, human recombinant calcium ion channel Cav2.2/β3/α2δ-1 (Homo sapiens, UniProt P54289); experiment: In vitro binding to human recombinant calcium ion channel Cav2.2/β3/α2δ-1 ([3H]gabapentin competition); details: inhibition of binding of 5 nM [3H]gabapentin, CHO cell membranes, 25° C., 120 min; read-out: IC50
T1 construct: expressed in transfected cells; host or cells: CHO cells (membranes)
Description: Example 28 In Vitro Binding of Compounds to Human Recombinant Calcium Ion Channel Cav2.2/β3/α2δ-1
There are four subtypes of the voltage-gated calcium ion channel α2δ subunit, α2δ-1, α2δ-2, α2δ-3 and α2δ-4, in which α2δ-1 is the subtype that mediates chronic neuropathic pain (Field, M. J. et al.; Proc. Natl. Acad. Sci. U.S.A. 2006, 103, 17537-17542). Therefore, the binding strength of a compound to α2δ-1 is a direct indicator for measuring an analgesic effect thereof on the chronic neuropathic pain (Calandre, E. P. et al.; Expert Rev. Neuroether. 2016, 16, 1263-1277).
The in vitro binding strength of the compound of the present application to human recombinant calcium ion channel Cav2.2/β3/α2δ-1 is basically operated according to a reported method (Gee, N. S. et al.; J. Biol. Chem. 1996, 271, 5768-5776; Marais, E. et al.; Mol. Pharmacol. 2001, 59, 1243-1248). CHO cells expressing the human recombinant calcium ion channel Cav2.2/β3/α2δ-1 were used in the test. After routine separation of cell membranes, 3 μg of the cell membranes were added into each well with a modified HEPES/KOH buffer solution (pH 7.4) as a solution of the test system. Then, 5 nM [^3H]gabapentin and the compound to be tested at 6 concentrations (3, 9, 27, 81, 243, and 729 nM) were added, and the test system was incubated at 25° C. for 120 min. Non-specific binding was obtained by replacing the compound to be tested in the above test system with […] gabapentin. After the incubation was completed, the cell membranes were collected by filtration and washed with 50 mM Tris-HCl (pH 7.4), and then the radioactivity of [^3H]gabapentin bound to the cell membranes was tested by a liquid scintillation technology. […] An inhibition rate of the compound of the present application on the binding of the [^3H]gabapentin to the human recombinant calcium ion channel Cav2.2/β3/α2δ-1 was calculated according to the following formula: […]
wherein • I is the radioactivity corresponding to that the compound to be tested and [^3H]gabapentin are simultaneously co-incubated with the human recombinant calcium ion channel Cav2.2/β3/α2δ-1, • I0 is the radioactivity corresponding to co-incubation of [^3H]gabapentin and the human recombinant calcium ion channel Cav2.2/β3/α2δ-1 without adding the compound to be tested into the incubation system, and • IU is the radioactivity corresponding to that 10 μM gabapentin and [^3H]gabapentin are simultaneously co-incubated with the human recombinant calcium ion channel Cav2.2/β3/α2δ-1.
The concentration of the compound to be tested that inhibits 50% of the binding of [^3H]gabapentin to the human recombinant calcium ion channel Cav2.2/β3/α2δ-1 is defined as IC50, and the IC50 is calculated by nonlinear least squares regression analysis using the above inhibition rate (MathIQ™, ID Business Solutions Ltd., UK).

[3] = tested on: mouse 6-Hz psychomotor seizure model; experiment: Antiepileptic effect in mouse 6-Hz psychomotor seizure model; type: in vivo; details: 6-Hz model, C57BL/6 mice, gavage, dose 200 mg/kg
Protocol: A negative vehicle control group, a positive drug control group (pregabalin and gabapentin) and a test group of the compounds of the present application were set. Male C57BL/6 mice with a body weight of 20±2 g were selected. […] After fasted for 12 h, the mice were administered the compounds of the present application or the control drugs, and then subjected to 6-Hz electrical stimulation to induce epilepsy seizure behaviors after a certain time interval (2 h for pregabalin, 1 h for gabapentin, 1 h for levetiracetam, and 3 h for the compounds of the present application). In an induction model, when the stimulation was performed with a Model 4100 stimulator (A-M Systems, the United States), rear necks of the mice were immobilized by hands on a feeding cage, a corneal electrode was moisten with normal saline and allowed to gently contact bilateral corneas of the mice, the electrical stimulator was trod by a foot to give the mice the electrical stimulation with a stimulation parameter of 6-Hz, a one-way square wave of 32 mA, a wave width of 0.2 ms and a stimulation duration of 3 sec, and timing was performed with a stopwatch during the stimulation. After the electrical stimulation was completed, the mice with the seizure behaviors lasting for less than 7 sec were regarded as being protected by the drugs, and the mice with the seizure behaviors lasting for more than 7 sec were regarded as being not protected from the epilepsy by the drugs. Response situations of the animals were observed and recorded, and obtained data were counted to calculate protection rates of the compounds.
Statistical method: The protection rates of different administration groups were separately compared with that of the vehicle control group to carry out a Fisher's exact test.

[4] = tested on: male SD rats; experiment: Acute toxicity test on rats; details: oral gavage 300 mg/kg (calculated by free base)
Protocol: After adapting to the environment for one week, the SD rats were used in a preliminary acute toxicity test. The compounds were newly formulated on the day of the test. […] After being labeled and weighed, the animals were randomly grouped with 2-4 animals in each group. […] Clinical symptoms of each animal were observed and recorded at 0.5 hours, 1 hour, 2 hours, 4 hours, 6 hours and 24 hours after the administration, respectively. Clinical symptom codes were as follows: 0 no abnormality, 1 mild tremor, 2 unsteady gait, 3 prone position, 4 startle reflex, 5 difficult breathing, 6 righting reflex disappeared, 7 eyelid closure, 8 shortness of breath, and x animal death.

T1 sequence (P54289 25-956 limits assumed): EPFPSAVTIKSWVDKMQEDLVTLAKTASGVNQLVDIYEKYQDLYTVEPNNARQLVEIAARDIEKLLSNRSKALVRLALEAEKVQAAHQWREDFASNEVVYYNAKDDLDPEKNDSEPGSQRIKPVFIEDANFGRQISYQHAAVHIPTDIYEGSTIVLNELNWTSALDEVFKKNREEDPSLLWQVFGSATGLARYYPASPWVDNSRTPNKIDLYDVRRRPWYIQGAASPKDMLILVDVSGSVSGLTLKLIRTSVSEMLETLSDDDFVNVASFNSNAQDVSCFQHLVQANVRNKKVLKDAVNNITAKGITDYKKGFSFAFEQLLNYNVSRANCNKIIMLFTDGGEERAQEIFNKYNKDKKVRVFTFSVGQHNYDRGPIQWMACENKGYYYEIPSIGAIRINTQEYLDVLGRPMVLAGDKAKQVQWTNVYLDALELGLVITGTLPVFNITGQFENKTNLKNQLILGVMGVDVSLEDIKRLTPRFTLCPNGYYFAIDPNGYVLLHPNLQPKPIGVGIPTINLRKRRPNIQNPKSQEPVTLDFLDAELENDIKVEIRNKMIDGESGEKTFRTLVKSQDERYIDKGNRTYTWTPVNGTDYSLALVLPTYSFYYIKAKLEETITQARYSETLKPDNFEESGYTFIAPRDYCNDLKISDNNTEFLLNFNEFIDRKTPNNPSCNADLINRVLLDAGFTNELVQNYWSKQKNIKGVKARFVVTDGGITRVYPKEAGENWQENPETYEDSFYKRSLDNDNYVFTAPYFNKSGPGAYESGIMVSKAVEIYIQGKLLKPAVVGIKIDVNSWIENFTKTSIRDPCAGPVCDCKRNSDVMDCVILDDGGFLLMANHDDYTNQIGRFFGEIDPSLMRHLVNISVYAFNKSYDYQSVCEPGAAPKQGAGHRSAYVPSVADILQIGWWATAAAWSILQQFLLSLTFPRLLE
T1 sequence (P54289 957-1103 partner limits assumed): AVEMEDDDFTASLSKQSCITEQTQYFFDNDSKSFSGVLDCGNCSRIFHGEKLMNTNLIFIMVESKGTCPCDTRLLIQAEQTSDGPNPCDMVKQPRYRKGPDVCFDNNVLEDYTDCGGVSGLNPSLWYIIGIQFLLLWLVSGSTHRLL
T1 sequence (Q00975 whole entry partner): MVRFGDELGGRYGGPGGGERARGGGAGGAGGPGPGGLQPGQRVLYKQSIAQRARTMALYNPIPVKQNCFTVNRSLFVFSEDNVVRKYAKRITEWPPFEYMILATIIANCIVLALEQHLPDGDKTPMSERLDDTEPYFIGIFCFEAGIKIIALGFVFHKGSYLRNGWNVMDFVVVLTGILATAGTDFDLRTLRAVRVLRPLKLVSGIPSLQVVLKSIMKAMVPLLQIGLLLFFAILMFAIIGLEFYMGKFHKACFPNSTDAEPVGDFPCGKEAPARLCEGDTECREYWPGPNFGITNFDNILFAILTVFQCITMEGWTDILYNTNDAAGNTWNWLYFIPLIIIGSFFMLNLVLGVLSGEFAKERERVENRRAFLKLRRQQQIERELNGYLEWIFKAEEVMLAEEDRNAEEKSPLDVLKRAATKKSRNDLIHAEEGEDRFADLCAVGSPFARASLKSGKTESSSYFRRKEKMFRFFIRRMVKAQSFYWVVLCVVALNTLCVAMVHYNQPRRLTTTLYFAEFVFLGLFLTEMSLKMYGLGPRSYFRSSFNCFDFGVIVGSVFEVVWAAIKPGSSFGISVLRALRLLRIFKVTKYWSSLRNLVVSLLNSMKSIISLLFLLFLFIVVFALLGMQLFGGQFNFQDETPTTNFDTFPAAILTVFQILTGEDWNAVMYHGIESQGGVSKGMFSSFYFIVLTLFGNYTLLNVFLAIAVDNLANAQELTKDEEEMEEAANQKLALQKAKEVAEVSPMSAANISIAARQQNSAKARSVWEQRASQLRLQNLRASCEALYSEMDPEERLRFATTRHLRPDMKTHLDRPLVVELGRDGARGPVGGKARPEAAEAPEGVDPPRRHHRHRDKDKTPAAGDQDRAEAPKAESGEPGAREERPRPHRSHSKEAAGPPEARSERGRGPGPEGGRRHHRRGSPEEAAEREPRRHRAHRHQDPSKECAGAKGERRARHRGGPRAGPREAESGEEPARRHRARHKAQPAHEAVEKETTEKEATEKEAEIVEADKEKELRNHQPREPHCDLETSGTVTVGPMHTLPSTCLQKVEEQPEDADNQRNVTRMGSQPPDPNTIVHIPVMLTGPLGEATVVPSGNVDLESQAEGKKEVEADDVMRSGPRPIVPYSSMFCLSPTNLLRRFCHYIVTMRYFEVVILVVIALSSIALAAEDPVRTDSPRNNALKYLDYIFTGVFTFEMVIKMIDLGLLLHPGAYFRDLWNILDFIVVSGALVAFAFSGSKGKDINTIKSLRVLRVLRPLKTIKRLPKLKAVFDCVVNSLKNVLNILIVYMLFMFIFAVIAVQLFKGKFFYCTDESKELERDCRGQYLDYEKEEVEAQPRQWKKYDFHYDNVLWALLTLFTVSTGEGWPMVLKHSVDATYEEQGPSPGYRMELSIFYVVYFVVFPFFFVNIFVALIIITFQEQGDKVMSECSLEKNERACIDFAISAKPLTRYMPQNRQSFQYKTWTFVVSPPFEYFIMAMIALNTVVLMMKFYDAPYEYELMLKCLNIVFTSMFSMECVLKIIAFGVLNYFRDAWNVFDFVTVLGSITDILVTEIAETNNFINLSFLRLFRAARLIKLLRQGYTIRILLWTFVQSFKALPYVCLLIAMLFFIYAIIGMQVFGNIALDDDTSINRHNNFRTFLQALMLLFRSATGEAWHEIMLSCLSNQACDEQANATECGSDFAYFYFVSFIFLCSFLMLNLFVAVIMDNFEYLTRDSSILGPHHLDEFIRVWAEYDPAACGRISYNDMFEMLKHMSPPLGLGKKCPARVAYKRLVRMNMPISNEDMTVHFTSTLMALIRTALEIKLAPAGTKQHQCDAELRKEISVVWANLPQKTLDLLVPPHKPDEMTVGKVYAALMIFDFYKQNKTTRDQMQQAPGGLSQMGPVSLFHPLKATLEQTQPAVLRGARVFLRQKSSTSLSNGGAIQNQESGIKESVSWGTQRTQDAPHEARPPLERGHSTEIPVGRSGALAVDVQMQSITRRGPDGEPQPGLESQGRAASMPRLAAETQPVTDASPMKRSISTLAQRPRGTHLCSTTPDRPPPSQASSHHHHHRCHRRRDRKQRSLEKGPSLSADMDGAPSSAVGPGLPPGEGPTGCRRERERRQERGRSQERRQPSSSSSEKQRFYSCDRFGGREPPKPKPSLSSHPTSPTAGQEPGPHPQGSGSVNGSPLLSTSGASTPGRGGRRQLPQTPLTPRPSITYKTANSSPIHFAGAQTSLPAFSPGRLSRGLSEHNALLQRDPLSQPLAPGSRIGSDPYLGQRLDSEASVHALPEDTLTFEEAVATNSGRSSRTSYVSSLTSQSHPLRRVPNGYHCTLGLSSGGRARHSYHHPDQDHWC
T1 sequence (P54284 whole entry partner): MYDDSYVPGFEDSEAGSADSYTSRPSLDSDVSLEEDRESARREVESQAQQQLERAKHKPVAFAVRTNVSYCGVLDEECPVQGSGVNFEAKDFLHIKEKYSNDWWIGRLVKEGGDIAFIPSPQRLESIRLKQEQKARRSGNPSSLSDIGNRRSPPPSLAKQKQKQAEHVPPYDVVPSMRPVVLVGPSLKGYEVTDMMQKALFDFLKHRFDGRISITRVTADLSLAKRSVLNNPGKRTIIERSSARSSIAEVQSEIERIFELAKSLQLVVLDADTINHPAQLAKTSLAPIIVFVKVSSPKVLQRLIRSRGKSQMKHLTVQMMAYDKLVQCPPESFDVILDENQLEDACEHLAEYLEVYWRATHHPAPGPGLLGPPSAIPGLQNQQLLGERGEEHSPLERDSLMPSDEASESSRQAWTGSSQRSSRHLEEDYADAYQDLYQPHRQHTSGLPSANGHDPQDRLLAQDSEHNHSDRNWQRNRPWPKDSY

Row | SMILES | IC50 [2] | other results
1 | Cc1ccc(S(=O)(=O)O)cc1.NCC1(CC(=O)O)CC2C3CCC(C3)C21 (single isomer, unassigned; (-)) [(−)-I-3 p-toluenesulfonate] | > 0.243 µM | maximum possible effect (MPE) [1]: 30.22%
2 | NCC1(CC(=O)O)CC2C3CCC(CC3)C21 (racemic) [(±)-I-5] | 0.45 µM | 
3 | Cc1ccc(S(=O)(=O)O)cc1.NCC1(CC(=O)O)CC2C3C=CC(C3)C21 (racemic) [(±)-I-4 p-toluenesulfonate] |  | area under the mechanical pain threshold-time curve compared with the vehicle control group [1]: significantly improved; maximum possible effect (% MPE) [1]: 95.95%
4 | NCC1(CC(=O)O)CC2C3C=CC(C3)C21 (racemic) [(±)-I-11 p-toluenesulfonate] | > 0.729 µM | 
5 | CC[C@@H](C(N)=O)N1CCCC1=O [Levetiracetam] |  | Number of animals with clonic seizures/total number [3]: 3/11**; Protection rate (%) [3]: 72.7 *** %
6 | NCC1(CC(=O)O)CC2C3C=CC(C3)C21 (single isomer, unassigned; (-)) [(−)-I-4 p-toluenesulfonate] | > 0.243 µM | maximum possible effect (MPE) [1]: 18.53%
7 | NCC1(CC(=O)O)CC2C3C=CC(CC3)C21 (racemic) [(±)-I-6 p-toluenesulfonate] | 0.3 µM | 
8 | NCC1(CC(=O)O)CC2C3CCC(C3)C21 (racemic) [(±)-I-1] | > 0.729 µM | 
9 | NCC1(CC(=O)O)CC2C3C[C@H]([C@H]4C[C@H]34)[C@@H]21 (mixture of isomers) [(±)-I-7] | 0.07 µM | animal death [4]: no animals are dead; Observation of clinical symptoms 0.5 h ([4]; per animal): 0; Observation of clinical symptoms 2 h ([4]; per animal): 3; Observation of clinical symptoms 4 h ([4]; per animal): 0; Observation of clinical symptoms 6 h ([4]; per animal): 0; Observation of clinical symptoms 24 h ([4]; per animal): 0; Observation of clinical symptoms 1 h ([4]; per animal, 300 mg/kg): 3; area under the mechanical pain threshold-time curve compared with the vehicle control group [1]: significantly improved; maximum possible effect (% MPE) [1]: 73.63%
10 | NCC1(CC(=O)O)CC2C3CCC(C3)C21 (racemic) [(±)-I-12] | > 0.729 µM | 

Second part, led by results:

Row | IC50 [2] | SMILES | other results
11 | 0.58 µM | CC1(C)C2C=CC1C1C2CC1(CN)CC(=O)O (racemic) [(±)-I-15 p-toluenesulfonate] | 
12 | 0.6 µM | CC1(C)C2CC[C@@H]1[C@H]1C2CC1(CN)CC(=O)O (mixture of isomers) [(±)-I-14] | 
13 | 0.47 µM | NCC1(CC(=O)O)C[C@@H]2C1C1C=C[C@H]2C1 (mixture of isomers) [(±)-I-2] | 
14 | 0.453 µM | CC1C2C=CC1C1C2CC1(CN)CC(=O)O (racemic) [(±)-I-17 p-toluenesulfonate] | 
15 | > 0.729 µM | CC1=C(C)C2(C)C3C(CC3(CN)CC(=O)O)C1(C)C2(C)C (racemic) [(±)-I-19] | 
16 | 0.0152 µM | NCC1(CC(=O)O)CC2C3CC[C@@H](C3)[C@@H]21 (mixture of isomers) [(±)-I-3] | maximum possible effect (% MPE) [1]: 44.80%
17 | > 0.729 µM | CC1=C(C)C2(C)CC1(C)C1CC(CN)(CC(=O)O)C12 (racemic) [(±)-I-18] | 
18 | > 0.729 µM | NCC1(CC(=O)O)CC2C1C1C=CC2C12CC2 (racemic) [(±)-I-9 p-toluenesulfonate] | 
19 | > 0.729 µM | NCC1(CC(=O)O)CC2C1C1CCC2C12CC2 (racemic) [(±)-I-10] | 
20 | 0.477 µM | CC1C2CC[C@@H]1[C@H]1C2CC1(CN)CC(=O)O (mixture of isomers) [(±)-I-16] | 
21 | > 0.729 µM | CC1=C(C)C2(C)C3C(CC3(CN)CC(=O)O)C1(C)C2C (racemic) [(±)-I-8] | 
